Patent US20200016076A1, “COMPOSITION FOR THE TREATMENT OF DUCHENNE MUSCULAR DYSTROPHY” (Summit (Oxford) Limited, priority 2016, published 2020)
Values after ≈ are worked out from the molar mass of the structure shown.

Key:
[1] = Gravimetric vapour sorption analysis; assay type: physicochemical
Excerpt: Form I was subjected to gravimetric vapour sorption analysis, ramping profile from 0 to 90% RH at 10% RH increments.

[2] = Solubility of ezutromid Form I polymorph in pharmaceutically-acceptable solvents at 20° C. (HPLC of saturated solutions); assay type: physicochemical; details: 1-propanol; 4 hours equilibration
Method: In each case, about 25 mg of drug substance was allowed to equilibrate with 250 μL of solvent over 4 hours. The resulting saturated solutions were filtered and analysed by HPLC.

mouse models of DMD = details: with corticosteroids including prednisone, prednisolone and deflazacort; WO2009/019504; cited from earlier work

Hygroscopicity ([1]; based on gravimetric vapour sorption): not hygroscopic
Moisture absorbed ([1]; up to 90% RH, 0 to 90% RH at 10% RH increments): no more than 0.25 % by weight
Solubility at 20° C. [2]: 790 µg/mL (≈ 2340 µM)
SMILES: CCS(=O)(=O)c1ccc2oc(-c3ccc4ccccc4c3)nc2c1 [ezutromid, 5-(ethylsulfonyl)-2-(naphthalen-2-yl)benzo[d]oxazole]
Reduction of exercise-induced fatigue with corticosteroids (mouse models of DMD): acts in synergy with corticosteroids
